Measurements reported in ChEMBL document CHEMBL4270561, “Biological activity of doubly modified salinomycin analogs - Evaluation in vitro and ex vivo” (Eur J Med Chem, 2018).
pIC50: −log10 of the molar value. Values belong to the compound of their own block, whether it stands above or below them.

What was measured:
[1] = Antiproliferative activity against human LoVo/DX cells at 100 ug/ml after 72 hrs by SRB assay relative to control; format: functional
JIMT-1 [2] = assay: Antiproliferative activity against human JIMT1 cells at 100 ug/ml after 72 hrs by SRB assay relative to control; format: functional
MCF-10A [3] = assay: Antiproliferative activity against human MCF10A cells at 100 ug/ml after 72 hrs by SRB assay relative to control; format: cell-based
SK-BR-3 [4] = assay: Antiproliferative activity against human SK-BR-3 cells at 100 ug/ml after 72 hrs by SRB assay relative to control; format: functional
MCF7 = assay: Antiproliferative activity against human MCF7 cells after 72 hrs by SRB assay; format: functional, cell-based; details: MCF7, 72 h
[5] = Antiproliferative activity against human ALL5 cells at 10 uM after 120 hrs by MTT assay relative to control; format: functional
LoVo [6] = assay: Antiproliferative activity against human LoVo cells at 100 ug/ml after 72 hrs by SRB assay relative to control; format: functional
Breast carcinoma cell [7] = assay: Ex vivo antitumor activity against patient derived breast cancer tissue assessed as decrease in tumor cell proliferation at 18.5 uM by Ki-67 staining based immunohistochemical analysis; format: functional; details: Homo sapiens, TDE = time-dependent effect
[8] = Cell cycle arrest in human ALL5 cells assessed as accumulation at G0/G1 phase at 5 times antiproliferative IC50 after 96 hrs by propidium iodide staining based flow cytometry (reference value: 69.8%); format: functional
[9] = Cell cycle arrest in human ALL5 cells assessed as accumulation at sub-G1 phase at 5 times antiproliferative IC50 after 96 hrs by propidium iodide staining based flow cytometry (reference value: 12%); format: functional
JIMT-1 [10] = assay: Antiproliferative activity against human JIMT1 cells after 72 hrs by SRB assay; format: functional, cell-based; details: JIMT-1, 72 h
[11] = Cell cycle arrest in human ALL5 cells assessed as accumulation at sub-G1 phase at 5 times antiproliferative IC50 after 24 hrs by propidium iodide staining based flow cytometry (reference value: 6.07%); format: functional
[12] = Cell cycle arrest in human ALL5 cells assessed as accumulation at sub-G1 phase at 5 times antiproliferative IC50 after 48 hrs by propidium iodide staining based flow cytometry (reference value: 7.8%); format: functional
SK-BR-3 [13] = assay: Antiproliferative activity against human SK-BR-3 cells after 72 hrs by SRB assay; format: functional, cell-based; details: SK-BR-3, 72 h
LoVo [14] = assay: Antiproliferative activity against human LoVo cells after 72 hrs by SRB assay; format: functional, cell-based
Breast carcinoma cell [15] = assay: Ex vivo antitumor activity against patient derived breast cancer tissue assessed as increase in number of dead tumor cells at 18.5 uM by H and E staining based immunohistochemical analysis; format: functional; details: Homo sapiens, TDE = time-dependent effect
[16] = Antiproliferative activity against human ALL5 cells after 120 hrs by MTT assay; format: functional, cell-based; details: ALL5, 120 h
[17] = Selectivity index, ratio of IC50 for human MCF10A cells to IC50 for human LoVo cells; format: toxicity; details: MCF10A cells versus LoVo cells, read-out: Ratio IC50
[18] = Resistance index, ratio of IC50 for human LoVo/DX cells to IC50 for human LoVo cells; format: functional
[19] = Cell cycle arrest in human ALL5 cells assessed as accumulation at G2/M-phase at 5 times antiproliferative IC50 after 48 hrs by propidium iodide staining based flow cytometry (reference value: 13.2%); format: functional
[20] = Selectivity index, ratio of IC50 for human MCF10A cells to IC50 for human SK-BR-3 cells; format: toxicity; details: MCF10A cells versus SK-BR-3 cells, read-out: Ratio IC50
[21] = Selectivity index, ratio of IC50 for human MCF10A cells to IC50 for human ALL5 cells; format: toxicity; details: MCF10A cells versus ALL5 cells, read-out: Ratio IC50
[22] = Cell cycle arrest in human ALL5 cells assessed as accumulation at G2/M-phase at 5 times antiproliferative IC50 after 24 hrs by propidium iodide staining based flow cytometry (reference value: 7.98%); format: functional
[23] = Selectivity index, ratio of IC50 for human MCF10A cells to IC50 for human MCF7 cells; format: toxicity; details: MCF10A cells versus MCF7 cells, read-out: Ratio IC50
[24] = Selectivity index, ratio of IC50 for human MCF10A cells to IC50 for human JIMT1 cells; format: toxicity; details: MCF10A cells versus JIMT1 cells, read-out: Ratio IC50
MCF-10A [25] = assay: Antiproliferative activity against human MCF10A cells after 72 hrs by SRB assay; format: cell-based
[26] = Selectivity index, ratio of IC50 for human MCF10A cells to IC50 for human LoVo/DX cells; format: toxicity; details: MCF10A cells versus LoVo/DX cells, read-out: Ratio IC50
[27] = Cell cycle arrest in human ALL5 cells assessed as accumulation at S-phase at 5 times antiproliferative IC50 after 96 hrs by propidium iodide staining based flow cytometry (reference value: 7.52%); format: functional
[28] = Cell cycle arrest in human ALL5 cells assessed as accumulation at G0/G1 phase at 5 times antiproliferative IC50 after 48 hrs by propidium iodide staining based flow cytometry (reference value: 69.6%); format: functional
[29] = Cell cycle arrest in human ALL5 cells assessed as accumulation at S-phase at 5 times antiproliferative IC50 after 24 hrs by propidium iodide staining based flow cytometry (reference value: 6.76%); format: functional
[30] = Antiproliferative activity against human LoVo/DX cells after 72 hrs by SRB assay; format: functional, cell-based
[31] = Cell cycle arrest in human ALL5 cells assessed as accumulation at G2/M-phase at 5 times antiproliferative IC50 after 96 hrs by propidium iodide staining based flow cytometry (reference value: 11.1%); format: functional
[32] = Cell cycle arrest in human ALL5 cells assessed as accumulation at S-phase at 5 times antiproliferative IC50 after 48 hrs by propidium iodide staining based flow cytometry (reference value: 9.82%); format: functional
[33] = Cell cycle arrest in human ALL5 cells assessed as accumulation at G0/G1 phase at 5 times antiproliferative IC50 after 24 hrs by propidium iodide staining based flow cytometry (reference value: 79.7%); format: functional

pIC50 (MCF7): 4.17
Compound: CCOC(=O)O[C@@H]1C=C[C@]2(O[C@H]([C@@H](CC)C(=O)[C@@H](C)[C@@H](O)[C@H](C)[C@@H]3O[C@@H]([C@@H](CC)C(=O)OCC(F)(F)F)CC[C@@H]3C)[C@@H](C)C[C@H]2C)O[C@@]12CC[C@@](C)([C@H]1CC[C@](O)(CC)[C@H](C)O1)O2
Activity [1]: <=50%
Activity (JIMT-1 [2]): <=50%
Activity (MCF-10A [3]): <= 50%
Activity (SK-BR-3 [4]): <=50%
Activity [5]: <=50%
Activity (LoVo [6]): <=50%

pIC50 (SK-BR-3 [13]): 5.42
pIC50 (LoVo [14]): 5.40
pIC50 (MCF7): 5.43
Compound: CC[C@@H](C(=O)[C@@H](C)[C@@H](O)[C@H](C)[C@@H]1O[C@@H]([C@@H](CC)C(=O)NCCc2ccc(F)cc2)CC[C@@H]1C)[C@H]1O[C@]2(C=C[C@@H](OC(C)=O)[C@]3(CC[C@@](C)([C@H]4CC[C@](O)(CC)[C@H](C)O4)O3)O2)[C@H](C)C[C@@H]1C
Activity (Breast carcinoma cell [7]): Tde
Activity [8]: 47.3%
Activity [9]: 49.3%
pIC50 (JIMT-1 [10]): 5.43
Activity [11]: 11%
Activity [12]: 27.4%
Activity (Breast carcinoma cell [15]): Tde
pIC50 [16]: 5.74
selectivity ratio [17]: 11
Ratio IC50 [18]: 0.88
Activity [19]: 5.2%
selectivity ratio [20]: 11
selectivity ratio [21]: 24
Activity [22]: 5.08%
selectivity ratio [23]: 12
selectivity ratio [24]: 12
pIC50 (MCF-10A [25]): 4.37
selectivity ratio [26]: 12
Activity [27]: 1.55%
Activity [28]: 65.6%
Activity [29]: 4.18%
pIC50 [30]: 5.46
Activity [31]: 1.96%
Activity [32]: 2.15%
Activity [33]: 79.9%
